Test results taken from the NIST ThermoML archive (doi:10.1016/j.fluid.2013.01.027).
Numbers after ± are expanded uncertainties.

Settings: 298.15 K; 101.33 kPa; Liquid; Vibrating tube method

Structure (SMILES)	mass density
CCc1ccccc1 [ethylbenzene]	862.97 ± 0.16 kg/m3
c1ccsc1 [thiophene]	1058.48 ± 0.28 kg/m3
CCCc1ccccc1 [propylbenzene]	858.62 ± 0.24 kg/m3
c1ccccc1 [benzene]	873.53 ± 0.14 kg/m3
CCCC[N+]1(C)CCCC1.FC(F)(F)C(F)(F)[P-](F)(F)(F)(C(F)(F)C(F)(F)F)C(F)(F)C(F)(F)F	1582.63 ± 0.76 kg/m3
Cc1ccccc1 [toluene]	863.67 ± 0.14 kg/m3

Results, then the compound that gave them:

mass density	Structure (SMILES)
826.38 ± 0.14 kg/m3	CCCCCCCCCCO [decan-1-ol]
814.94 ± 0.15 kg/m3	CCCCCCO [hexan-1-ol]
823.27 ± 0.14 kg/m3	CCCCCCCCO [octan-1-ol]
805.78 ± 0.15 kg/m3	CCCCO [butan-1-ol]
823.35 ± 0.24 kg/m3	CCCCCCCCCCCCO [dodecan-1-ol]
